Numbers after ± are expanded uncertainties.
Assay: xn = mol fraction of the nth substance listed
Settings: Liquid, Vibrating tube method

CCCCCCCCCC [decane] + CCO
mass density [kg/m3]
Settings | x2 = 0.0937 | x2 = 0.1011 | x2 = 0.4963 | x2 = 0.7526 | x2 = 0.9014
342.81 K, 1000 kPa | 691.26 ± 0.23 | 691.32 ± 0.23 | 698.84 ± 0.22 | – | –
342.81 K, 2000 kPa | 692.32 ± 0.24 | 692.38 ± 0.24 | 699.92 ± 0.24 | – | –
342.81 K, 3000 kPa | 693.37 ± 0.25 | 693.43 ± 0.25 | 700.98 ± 0.25 | – | –
342.81 K, 4000 kPa | 694.4 ± 0.27 | 694.46 ± 0.27 | 702.03 ± 0.26 | – | –
342.81 K, 5000 kPa | 695.42 ± 0.28 | 695.48 ± 0.28 | 703.09 ± 0.28 | – | –
342.81 K, 6000 kPa | 696.42 ± 0.3 | 696.48 ± 0.3 | 704.13 ± 0.29 | – | –
342.81 K, 7000 kPa | 697.41 ± 0.31 | 697.47 ± 0.31 | 705.18 ± 0.3 | – | –
342.81 K, 8000 kPa | 698.4 ± 0.33 | 698.46 ± 0.33 | 706.22 ± 0.32 | – | –
342.81 K, 9000 kPa | 699.37 ± 0.34 | 699.44 ± 0.34 | 707.25 ± 0.33 | – | –
342.81 K, 10000 kPa | 700.35 ± 0.35 | 700.42 ± 0.35 | 708.27 ± 0.34 | – | –
342.81 K, 11000 kPa | 701.32 ± 0.37 | 701.38 ± 0.37 | 709.28 ± 0.36 | – | –
342.81 K, 12000 kPa | 702.28 ± 0.38 | 702.33 ± 0.38 | 710.29 ± 0.37 | – | –
342.81 K, 13000 kPa | 703.21 ± 0.39 | 703.27 ± 0.39 | 711.26 ± 0.38 | – | –
342.81 K, 14000 kPa | 704.14 ± 0.41 | 704.2 ± 0.41 | 712.23 ± 0.4 | – | –
342.81 K, 15000 kPa | 705.06 ± 0.42 | 705.12 ± 0.42 | 713.19 ± 0.41 | – | –
342.81 K, 16000 kPa | 705.95 ± 0.44 | 706.02 ± 0.44 | 714.13 ± 0.42 | – | –
342.81 K, 17000 kPa | 706.83 ± 0.45 | 706.9 ± 0.45 | 715.07 ± 0.44 | – | –
342.81 K, 18000 kPa | 707.7 ± 0.46 | 707.77 ± 0.46 | 715.97 ± 0.45 | – | –
342.81 K, 19000 kPa | 708.56 ± 0.48 | 708.63 ± 0.48 | 716.86 ± 0.46 | – | –
342.81 K, 20000 kPa | 709.39 ± 0.49 | 709.45 ± 0.49 | 717.73 ± 0.48 | – | –
342.86 K, 1000 kPa | – | – | – | 711.77 ± 0.21 | 726.79 ± 0.21
342.86 K, 2000 kPa | – | – | – | 712.88 ± 0.23 | 727.93 ± 0.22
342.86 K, 3000 kPa | – | – | – | 713.97 ± 0.24 | 729.05 ± 0.23
342.86 K, 4000 kPa | – | – | – | 715.06 ± 0.25 | 730.15 ± 0.24
342.86 K, 5000 kPa | – | – | – | 716.15 ± 0.27 | 731.27 ± 0.25
342.86 K, 6000 kPa | – | – | – | 717.23 ± 0.28 | 732.36 ± 0.27
342.86 K, 7000 kPa | – | – | – | 718.31 ± 0.29 | 733.45 ± 0.28
342.86 K, 8000 kPa | – | – | – | 719.38 ± 0.3 | 734.54 ± 0.29
342.86 K, 9000 kPa | – | – | – | 720.44 ± 0.32 | 735.62 ± 0.3
342.86 K, 10000 kPa | – | – | – | 721.49 ± 0.33 | 736.69 ± 0.31
342.86 K, 11000 kPa | – | – | – | 722.54 ± 0.34 | 737.75 ± 0.33
342.86 K, 12000 kPa | – | – | – | 723.57 ± 0.36 | 738.79 ± 0.34
342.86 K, 13000 kPa | – | – | – | 724.58 ± 0.37 | 739.82 ± 0.35
342.86 K, 14000 kPa | – | – | – | 725.59 ± 0.38 | 740.84 ± 0.36
342.86 K, 15000 kPa | – | – | – | 726.57 ± 0.39 | 741.84 ± 0.37
